The source of these data is publication PMC2916045 (Journal of the American Chemical Society, 2010).

“Also recorded” adds a separate entry of the source.

The test system of data set [1] is primary cortical neuron cultures. Put plainly: HCA oxidative stress neuroprotection assay.
For data set [2], the system named is α-tubulin hyperacetylation, corresponding to HDAC6 inhibition. The experiment in a line: α-tubulin hyperacetylation in cells. To be noted: for α-tubulin hyperacetylation versus histone hyperacetylation: at 2.5 µM.
A further data set has as its system α-tubulin acetylation. As to conditions: at 5 µM; ref 29 (Parmigiani et al.); cited from earlier work.
Data set [3] relates to histone hyperacetylation, corresponds to class I HDAC inhibition. Put plainly: histone hyperacetylation in cells. As to conditions: at 10 µM.
Data set [4] relates to primary cortical neuron cultures. Put plainly: Neuronal toxicity of compound alone. Type of data set: cell-based, Sprague-Dawley rats. As to conditions: all concentrations tested, without HCA, 24 h, MTT.

With `CC(/C=C/C(=O)NO)=C\[C@@H](C)C(=O)c1ccc(N(C)C)cc1` [TSA, trichostatin A, reference compound], in data set [1] (at 0.5 µM, HCA 5 mM, 24 h, MTT), the “neuroprotection in HCA-induced neurodegeneration assay” value is on record as “moderately neuroprotective”. The “neurotoxicity in HCA-induced neurodegeneration assay” value in data set [1] (at concentrations higher than 0.5 µM, protection declined) is reported as “dose-dependant neurotoxicity”.
As to `O=C(CCCCCCC(=O)Nc1ccc([C@H]2O[C@@H](CSc3nc(-c4ccccc4)c(-c4ccccc4)o3)C[C@@H](c3ccc(CO)cc3)O2)cc1)NO` [Tubacin, reference compound], the “α-tubulin hyperacetylation versus histone hyperacetylation” value in data set [2] is reported as “preferentially induced α-tubulin hyperacetylation”. The α-tubulin acetylation entry in the data set with α-tubulin acetylation is “induces α-tubulin acetylation”.
On to `CN1CCc2c(c3ccccc3n2Cc2ccc(C(=O)NO)cc2)C1.O=C(O)C(F)(F)F` [compound 6, Tubastatin A], for which the “α-tubulin hyperacetylation versus histone hyperacetylation” value in data set [2] is given as “preferentially induced α-tubulin hyperacetylation”. In addition, the “levels of acetylated α-tubulin” value in data set [2] (primary cortical neuron cultures) is “induce elevated levels of acetylated α-tubulin”. Also, the histone hyperacetylation result in data set [3] was “Slight induction of histone hyperacetylation”. The “neuronal toxicity when tested alone” value in data set [4] is “exhibited no toxicity; also recorded: no neuronal toxicity”. Moreover, the “in vitro ADME properties” value in the data set “in vitro ADME properties” is on record as “favorable in vitro ADME properties”. The “concentration at which protection against HCA-induced neuronal cell death starts” value in data set [1] (HCA 5 mM, 24 h, MTT) is given as 5 µM. The “protection against HCA-induced neuronal cell death (glutathione depletion-induced oxidative stress)” value in data set [1] (HCA 5 mM, 24 h, MTT, concentration series) is listed as “dose-dependent protection”. In addition, the “protection against HCA-induced neuronal cell death” value in data set [1] (at 10 µM, HCA 5 mM, 24 h, MTT) was “near complete protection”.
